From patent publication US7767645B2, “SH2 domain binding inhibitors” (The United States of America as represented by the …, priority 2003, dated 2010)

Tests used:
[1] = target: T1, Grb2 SH2 domain-MBP fusion protein (Homo sapiens, UniProt P62993); assay: ELISA-based determination of Grb2 SH2 domain-binding IC50 values; details: competition with HRP-SA-biotinylated-phosphopeptide complex
T1 construct: is added biotinylated Grb2 SH2 domain-MBP fusion protein; biotin (biotinylated)
Protocol: ELISA-Based Determination of Grb2 SH2 Domain-Binding IC50 Values. To multiwell plates pre-coated with streptavidin (SA) is added biotinylated Grb2 SH2 domain-MBP fusion protein. SH2 domain-fusion protein binds to the SA on the plate and unbound protein is then washed away and the plate is blocked using the commercial ELISA blocking agent, I-Block that contains detergent and casein (a milk protein). This blocking agent prevents subsequently-added constituents from sticking to the plastic well non-specifically. To the wells is then added horseradish peroxidase-(HRP)-SA-biotinylated-phosphopeptide as a pre-formed complex (termed “Complex”). [NOTE: The HRP-SA-biotinylated phosphopeptide complex is prepared ahead of time by combining a vast molar excess of SA-HRP with the biotinylated phosphopeptide to assure that all of the biotin sites are bound to SA-HRP before they are added to the well. This prevents those biotin sites from sticking to the SA coating on the plate, which would generate a signal even in the absence of biotinylated Grb2 SH2 domain-MBP fusion protein.] This complex binds to the Grb2 SH2 domain via the phosphopeptide. Unbound Complex is washed away before adding HRP substrate (OPD) to generate a color that is measured spectrophotometrically. Synthetic SH2 domain binding antagonists, at various concentrations, are added to wells in the presence of Complex to compete for HRP-SA-biotinylated-phosphopeptide binding to Grb2 SH2 domain protein. The intensity of the resulting color for each well as a function of the concentration of synthetic inhibitor added is recorded.

[2] = target: T2, Grb2 SH2 domain protein (b-Grb2) (Homo sapiens, UniProt P62993); assay: Surface Plasmon Resonance (SPR) determination of Grb2 SH2 domain-binding Kd values; details: BIACORE S51, immobilized biotinylated Grb2 SH2 domain, 25° C., PBS pH 7.4
T2 construct: All Biotinylated Grb2 SH2 domain protein (b-Grb2) was expressed and purified; biotin (biotinylated)
T2 sequence (P62993 60-152 limits assumed): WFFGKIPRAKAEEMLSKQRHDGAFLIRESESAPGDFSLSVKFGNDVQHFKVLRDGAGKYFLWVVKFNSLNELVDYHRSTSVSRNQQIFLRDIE
Protocol: Binding affinities were determined as follows. Surface Plasmon Resonance (SPR) Determination of Grb2 SH2 Domain-Binding Kd Values. Binding experiments were performed on a BIACORE S51 instrument (Biacore Inc., Piscataway N.J.). All Biotinylated Grb2 SH2 domain protein (b-Grb2) was expressed and purified (Protein Expression Laboratory and The Protein Chemistry Laboratory, SAIC—Frederick). The b-Grb2 was immobilized onto carboxymethyl 5′ dextran surface (CM5 sensor chip, Biacore Inc.) by amine coupling. The lyophilized b-Grb2 was reconstituted in fifty percent DMSO in H2O to make a stock solution of 1 mg/mL and stored at −80° C. A 1:12.5 dilution of b-Grb2 was used for immobilization and prepared by dilution in acetate buffer pH-5.0, with 5% DMSO. 1×PBS (phosphate buffered saline, pH 7.4) was used as the running buffer.
An immobilization wizard was used to facilitate immobilization targeting. For b-Grb2, 2500-5000 resonance units (RU) of protein were captured on the CM5 sensor chip. Small molecule ligands were serially diluted in running buffer to concentrations of 1.25 nM-1500 nM, as described in each sensorgram and injected at 25° C. at a flow rate of 30 μl/min for 1 minute and dissociation was monitored for an additional 3 minutes. Surface regeneration was not used. Samples of differing concentrations of small molecule ligands were injected in increasing concentration, with every injection being performed in duplicate within each experiment. In order to subtract background noise from each data set, all samples were also run over an unmodified reference surface and injections of running buffer were performed throughout every experiment (“double referencing”). Up to six data sets were fit to a simple 1:1 interaction model or to a surface heterogeneity model (“complex model”) for compound 41, using the global data analysis program CLAMP. Myszka, D. G.; Morton, T. A.; CLAMP: A biosensor kinetic data analysis program. Trends Biochem. Sci. 1998, 23, 149-150. The mean of the ratio and associated error were calculated according to known procedures. van Kempen, G. M.; van Vliet, L. J.; Mean and variance of ratio estimators used in fluorescence ratio imaging. Cytometry 2000, 39, 300-305.

T1 sequence (P62993 60-152 limits assumed): as above

Compound | IC50 [1] | Kd [2]
Cc1ccc2c(ccn2CC2CC=CC(c3ccc(NC(=O)C(=O)O)cc3)C(CC(=O)O)C(=O)NC3(CCCCC3)C(=O)NC(CC(N)=O)C(=O)NC2)c1 (centres unmarked) [Compound 28] | 8.8 nM | 67 nM
Cc1ccc2c(ccn2CC2CC=CC(c3ccc(CC(=O)O)cc3)C(CC(=O)O)C(=O)NC3(CCCCC3)C(=O)NC(CC(N)=O)C(=O)NC2)c1 (centres unmarked) [Compound 33] | 22.5 nM | –
Cc1ccc2c(ccn2CC2CC=CC(c3ccc(CP(=O)(O)O)cc3)C(CC(=O)O)C(=O)NC3(CCCCC3)C(=O)NC(CC(N)=O)C(=O)NC2)c1 (centres unmarked) [Compound 6] | – | 1.67 nM

Further lines, results first:

IC50 [1] | Kd [2] | Compound
3.3 nM | 3.62 nM | Cc1ccc2c(ccn2CC2CC=CC(c3ccc(C(C(=O)O)C(=O)O)cc3)C(CC(=O)O)C(=O)NC3(CCCCC3)C(=O)NC(CC(N)=O)C(=O)NC2)c1 (centres unmarked) [Compound 32]
8.4 nM | 35.3 nM | Cc1ccc2c(ccn2CC2CC=CC(c3ccc(CP(=O)(O)Cc4ccccc4)cc3)C(CC(=O)O)C(=O)NC3(CCCCC3)C(=O)NC(CC(N)=O)C(=O)NC2)c1 (centres unmarked) [Compound 41]
